{
  "source": "patent EP2876156A1",
  "about": "(COMMISSARIAT A L'ENERGIE ATOMIQUE ET AUX ENERGIES …, priority 2013, dated 2015)",
  "key": {"[1]": {"system": "ENZ1 (SEQ ID NO:1) and ENZ2 (SEQ ID NO:2)", "test": "Cascade dihydroxylation of L-lysine, conversion by HPLC (protocol A)", "type": "biochemical, Catenulispora acidiphila; Flavobacterium johnsoniae", "settings": "ENZ1 0.13 mg/mL 3h, then ENZ2 added, 18 h, room temperature", "experimental": "(§1) Enzymatic reaction medium (0.2 µmole, leq.), borate buffer 0,2M pH 7.7 (80 µL) and Fmoc-Cl solution7.5 mM in acetone (100 µL, 0.75 µmole, 3.75 eq) were hand shaked in a closed 1.50 mL eppendorf for one minute. The aqueous layer was extracted with petroleum ether (3*1 mL) to eliminate excess of Fmoc-Cl. 70 µL of the aqueous phase were withdrawn, diluted with 70 µL of acetonitrile and injected into the HPLC. For substrates with two amine functions, 100 µL of Fmoc-Cl solution 15 mM were used.\n(§2) Conditions for HPLC analysis: Atlantis® T3 (3 µm 4.5*150 mm) at 35°C with the gradient 50-86% eluent B (MeCN + 0.1% TFA) and eluent A (H2O + 0.1% TFA) in 20 min at 1 mL/min.\nEnzymatic reaction was carried out in 250 mL glass erlenmeyer flask for a total volume of 4*10 mL. Water (5.6 mL), Hepes buffer 1M pH 7.50 (0.5 mL, 50 mM), L-lysine […] (1 mL, 10 mM), α-ketoglutarate 150 mM (1 mL, 15 mM), sodium ascorbate 100 mM (0.25 mL, 2,5 mM), ammonium Iron(II) sulfate hexahydrate 10 mM (1 mL, 1 mM) were poured into the erlenmeyer. The reaction was started by ENZ1 addition (1.99 mg/mL, 0.65 mL, final concentration 0.13 mg/mL). […] The conversion (90%) was determined by HPLC after derivatization with Fmoc-Cl according to protocol A. The assembled reaction mixtures were acidified with 200 µL of TFA then centrifuged. […]"}, "ENZ3 SEQ ID NO:3": {"target": "T1, ENZ3 SEQ ID NO:3 (Chitinophaga pinensis, UniProt C7PLM6)", "T1 construct": "His6 (hexahistidine, inserted after the initial methionine) (N); made in house; host or cells: E. coli BL21(DE3) plysE", "T1 sequence (C7PLM6 1-382)": "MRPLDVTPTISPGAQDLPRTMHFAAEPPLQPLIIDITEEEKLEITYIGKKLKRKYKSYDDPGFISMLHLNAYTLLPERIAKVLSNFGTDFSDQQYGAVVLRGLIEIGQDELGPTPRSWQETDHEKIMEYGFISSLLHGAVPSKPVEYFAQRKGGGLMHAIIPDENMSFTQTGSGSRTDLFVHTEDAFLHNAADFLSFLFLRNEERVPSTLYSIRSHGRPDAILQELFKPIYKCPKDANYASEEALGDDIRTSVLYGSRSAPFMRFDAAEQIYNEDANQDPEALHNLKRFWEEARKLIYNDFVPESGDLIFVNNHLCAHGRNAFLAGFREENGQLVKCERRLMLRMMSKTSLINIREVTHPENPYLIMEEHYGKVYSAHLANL", "type": "biochemical", "settings": "enzyme 0.08 mg/mL, molar ratio α-ketoglutarate/substrate 15/10, Hepes buffer 50 mM pH 7,5, Mohr's salt 1mM, without sodium ascorbate, room temperature, three hours", "experimental": "as §1, §2\n(§3) Enzymes (0.08 mg/mL) were screened against substrates (molar ratio α-ketoglutarate/substrate 15/10) in Hepes buffer 50 mM pH 7,5, with Mohr's salt at 1mM and without sodium ascorbate, at room temperature for three hours. The potential conversions of the substrates were determined by HPLC after Fmoc-Cl derivatization as section III here above."}, "ENZ2 SEQ ID NO:2": {"target": "T2, ENZ2 SEQ ID NO:2 (Flavobacterium johnsoniae, UniProt A5FF23)", "T2 construct": "His6 (hexahistidine, inserted after the initial methionine) (N); made in house; host or cells: E. coli BL21(DE3) plysE", "T2 sequence (A5FF23 1-370)": "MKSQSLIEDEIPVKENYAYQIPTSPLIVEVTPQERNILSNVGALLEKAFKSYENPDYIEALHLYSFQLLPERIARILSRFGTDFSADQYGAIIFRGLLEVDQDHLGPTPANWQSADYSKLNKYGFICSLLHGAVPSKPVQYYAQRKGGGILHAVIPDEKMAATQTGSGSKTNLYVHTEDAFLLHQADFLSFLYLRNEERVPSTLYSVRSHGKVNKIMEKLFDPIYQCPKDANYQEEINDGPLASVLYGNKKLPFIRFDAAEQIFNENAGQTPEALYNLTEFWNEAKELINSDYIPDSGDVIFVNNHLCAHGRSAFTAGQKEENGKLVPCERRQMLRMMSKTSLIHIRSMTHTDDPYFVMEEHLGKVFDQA", "type": "biochemical", "settings": "enzyme 0.08 mg/mL, molar ratio α-ketoglutarate/substrate 15/10, Hepes buffer 50 mM pH 7,5, Mohr's salt 1mM, without sodium ascorbate, room temperature, three hours", "experimental": "as §1, §2, §3"}, "ENZ4 SEQ ID NO:4": {"target": "T3, ENZ4 SEQ ID NO:4 (Catenulispora acidiphila, UniProt C7Q942)", "T3 construct": "His6 (hexahistidine, inserted after the initial methionine) (N); made in house; host or cells: E. coli BL21(DE3) plysE", "T3 sequence (C7Q942 1-343)": "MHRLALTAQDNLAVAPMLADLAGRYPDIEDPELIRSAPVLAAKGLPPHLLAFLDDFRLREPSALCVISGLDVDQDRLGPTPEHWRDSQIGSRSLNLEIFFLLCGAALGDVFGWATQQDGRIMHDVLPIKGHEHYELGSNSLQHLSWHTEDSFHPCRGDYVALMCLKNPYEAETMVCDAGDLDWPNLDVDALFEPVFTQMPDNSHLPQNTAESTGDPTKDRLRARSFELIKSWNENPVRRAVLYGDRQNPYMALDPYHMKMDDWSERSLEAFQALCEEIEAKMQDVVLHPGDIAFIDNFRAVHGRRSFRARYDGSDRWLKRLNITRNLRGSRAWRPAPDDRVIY", "test": "Substrate selectivity screening of hydroxylase (conversion by HPLC after Fmoc-Cl derivatization)", "type": "biochemical", "settings": "enzyme 0.08 mg/mL, molar ratio α-ketoglutarate/substrate 15/10, Hepes buffer 50 mM pH 7,5, Mohr's salt 1mM, without sodium ascorbate, room temperature, three hours", "experimental": "as §1, §2, §3"}, "ENZ1 SEQ ID N°1": {"target": "T4, ENZ1 SEQ ID N°1 (Catenulispora acidiphila, UniProt C7QJ42)", "T4 construct": "His6 (hexahistidine, inserted after the initial methionine) (N); made in house; host or cells: E. coli BL21(DE3) plysE", "T4 sequence (C7QJ42 1-358)": "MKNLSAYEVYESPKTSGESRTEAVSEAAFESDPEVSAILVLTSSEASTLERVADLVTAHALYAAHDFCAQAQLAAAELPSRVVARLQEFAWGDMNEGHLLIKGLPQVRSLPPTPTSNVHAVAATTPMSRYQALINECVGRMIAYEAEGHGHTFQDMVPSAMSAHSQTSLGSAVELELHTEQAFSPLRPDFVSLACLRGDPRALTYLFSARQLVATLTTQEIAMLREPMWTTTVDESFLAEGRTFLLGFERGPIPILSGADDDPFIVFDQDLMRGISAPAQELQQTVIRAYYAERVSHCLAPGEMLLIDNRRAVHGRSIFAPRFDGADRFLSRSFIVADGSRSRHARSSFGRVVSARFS", "test": "Substrate selectivity screening of hydroxylase (conversion by HPLC after Fmoc-Cl derivatization)", "type": "biochemical", "settings": "enzyme 0.08 mg/mL, molar ratio α-ketoglutarate/substrate 15/10, Hepes buffer 50 mM pH 7,5, Mohr's salt 1mM, without sodium ascorbate, room temperature, three hours", "experimental": "as §1, §2, §3"}},
  "data": [
    {"smiles": "NCCCC[C@H](N)C(=O)O", "note": "[L-lysine]", "values": [
      {"measurement": "conversion (L-lysine dihydroxylation to 3,4-di-hydroxy-L-lysine)", "setting": "[1]", "value": 90, "unit": "%"},
      {"measurement": "potential conversions of the substrates, ENZ3 SEQ ID NO:3", "setting": "ENZ3 SEQ ID NO:3", "value": "positive"},
      {"measurement": "potential conversions of the substrates, ENZ2 SEQ ID NO:2", "setting": "ENZ2 SEQ ID NO:2", "value": "positive"},
      {"measurement": "potential conversions of the substrates, ENZ4 SEQ ID NO:4", "setting": "ENZ4 SEQ ID NO:4", "value": "negative"},
      {"measurement": "potential conversions of the substrates, ENZ1 SEQ ID N°1", "setting": "ENZ1 SEQ ID N°1", "value": "positive"}
    ]}
  ]
}
